Assay results from patent US20260265195A1, “SARM1 MODULATORS, PREPARATIONS, AND USES THEREOF” (SIRONAX LTD, priority 2022, published 2026).

Biological target: T1, SARM1 (50-724) (Homo sapiens, UniProt Q6SZW1)
T1 construct: Purified SARM1 (50-724) with a final concentration of 2 nM
T1 sequence (Q6SZW1 50-724): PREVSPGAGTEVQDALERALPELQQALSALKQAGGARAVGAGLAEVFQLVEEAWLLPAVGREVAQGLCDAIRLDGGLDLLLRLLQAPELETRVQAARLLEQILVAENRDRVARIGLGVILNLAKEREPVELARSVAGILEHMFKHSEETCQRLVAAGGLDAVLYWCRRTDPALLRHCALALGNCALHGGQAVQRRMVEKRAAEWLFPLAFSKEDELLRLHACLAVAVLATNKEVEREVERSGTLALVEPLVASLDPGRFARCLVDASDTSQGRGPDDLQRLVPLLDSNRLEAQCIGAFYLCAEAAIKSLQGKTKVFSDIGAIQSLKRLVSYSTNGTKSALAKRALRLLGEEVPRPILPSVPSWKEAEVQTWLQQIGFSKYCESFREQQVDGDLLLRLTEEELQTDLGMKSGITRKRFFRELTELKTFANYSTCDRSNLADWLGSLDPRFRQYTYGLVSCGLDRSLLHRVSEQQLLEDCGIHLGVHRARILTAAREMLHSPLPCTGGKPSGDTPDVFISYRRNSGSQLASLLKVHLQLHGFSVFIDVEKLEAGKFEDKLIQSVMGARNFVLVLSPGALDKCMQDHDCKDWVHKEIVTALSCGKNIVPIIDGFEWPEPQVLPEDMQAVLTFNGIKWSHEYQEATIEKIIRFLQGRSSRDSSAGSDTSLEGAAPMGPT
Test: SARM1 (50-724) enzymatic assay (NMN-activated NAD+ hydrolysis, LC-MS/MS readout)
Type: biochemical
Conditions: purified SARM1 (50-724) 2 nM, 200 μM NMN activator, 100 μM NAD+ substrate, 1 h at room temperature, read-out: IC50 (SARM1 inhibitory activity)
Summary of the method: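 Purified human SARM1 (50-724), 2 nM final in DPBS, pre-incubated 15 min at RT with compound (1% DMSO), then started with 200 μM NMN activator and 100 μM NAD+. After 1 h at RT, quenched with 70% acetonitrile; analysed by LC-MS/MS.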

SMILES	IC50
O=C(c1nc2cc(C(F)(F)F)ccc2[nH]1)N(CC(F)(F)CO)c1ccc(F)c(F)c1Cl [Compound 212, N-(2-chloro-3,4-difluorophenyl)-N-(2,2-difluoro-3-hydroxypropyl)-5-(trifluoromethyl)-1H-benzo[d]imidazole-2-carboxamide]	≤ 100 nM
O=C(c1nc2cc(C(F)(F)F)ccc2[nH]1)N(CCN1CCCS1(=O)=O)c1cccc(Cl)c1Cl [Compound 199, N-(2,3-dichlorophenyl)-N-(2-(1,1-dioxidoisothiazolidin-2-yl)ethyl)-5-(trifluoromethyl)-1H-benzo[d]imidazole-2-carboxamide]	≤ 100 nM
O=C(c1nc2cc(C(O)C3CC3)ccc2[nH]1)N(CCO)c1cccc(Cl)c1Cl (racemic) [Compound 162]	≥ 1000 nM
CC(C)(O)c1ccc2[nH]c(C(=O)N(CCO)c3cccc(Cl)c3Cl)nc2c1 [Compound 150, N-(2,3-dichlorophenyl)-N-(2-hydroxyethyl)-5-(2-hydroxypropan-2-yl)-1H-benzo[d]imidazole-2-carboxamide]	≤ 100 nM
C=C(c1cn[nH]c1)c1ccc2[nH]c(C(=O)N(CCO)c3cccc(Cl)c3Cl)nc2c1 [Compound 187]	≤ 100 nM
O=C(c1nc2cc(C(F)(F)F)ccc2[nH]1)N(CCN1CCC1)c1cccc(Cl)c1Cl [Compound 149, N-(2-(azetidin-1-yl)ethyl)-N-(2,3-dichlorophenyl)-6-(trifluoromethyl)-1H-benzo[d]imidazole-2-carboxamide]	101 to 500 nM
CN(C(=O)c1nc2ccccc2[nH]1)C1CCCC1 [Compound 51, N-cyclopentyl-N-methyl-1H-benzo[d]imidazole-2-carboxamide]	≥ 1000 nM
O=C(c1nc2cc(Cl)cc(Cl)c2[nH]1)N(CC(F)(F)CO)c1cccc(F)c1Cl [Compound 235]	101 to 500 nM
CC1(C)OCC(CN(C(=O)c2nc3cc(C(F)(F)F)ccc3[nH]2)c2cccc(Cl)c2Cl)O1 (racemic) [Compound 173, N-(2,3-dichlorophenyl)-N-((2,2-dimethyl-1,3-dioxolan-4-yl)methyl)-5-(trifluoromethyl)-1H-benzo[d]imidazole-2-carboxamide]	≤ 100 nM
COc1ccccc1N(C)C(=O)c1[nH]c2ccc(C)cc2c1CO [Compound 13, 3-(hydroxymethyl)-N-(2-methoxyphenyl)-N,5-dimethyl-1H-indole-2-carboxamide]	≥ 1000 nM
Cn1nc(N(CC2COC2)C(=O)c2nc3cc(C(F)(F)F)ccc3[nH]2)c(Cl)c1Cl [Compound 111, N-(4,5-dichloro-1-methyl-1H-pyrazol-3-yl)-N-(oxetan-3-ylmethyl)-5-(trifluoromethyl)-1H-benzo[d]imidazole-2-carboxamide]	≤ 100 nM
Cc1ccc2[nH]c(C(=O)N(C)c3ccc(C#N)cc3)c(CO)c2c1 [Compound 3, N-(4-cyanophenyl)-3-(hydroxymethyl)-N,5-dimethyl-1H-indole-2-carboxamide]	≥ 1000 nM
Cc1ccc2[nH]c(C(=O)N3CCCCC3)c(CNc3ccccn3)c2c1 [Compound 87, (5-methyl-3-((pyridin-2-ylamino)methyl)-1H-indol-2-yl)(piperidin-1-yl)methanone]	≥ 1000 nM
Cc1c(-c2ccn[nH]2)ccc2[nH]c(C(=O)N(CC3COC3)c3cccc(Cl)c3Cl)nc12 [Compound 142]	≥ 1000 nM
CN(C(=O)c1nc2cc(Br)ccc2[nH]1)C1CCCC1 [Compound 104, 5-bromo-N-cyclopentyl-N-methyl-1H-benzo[d]imidazole-2-carboxamide]	101 to 500 nM
O=C1NC(CN(C(=O)c2nc3cc(C(F)(F)F)ccc3[nH]2)c2cccc(F)c2Cl)CO1 (racemic) [Compound 238, N-(2-chloro-3-fluorophenyl)-N-((2-oxooxazolidin-4-yl)methyl)-5-(trifluoromethyl)-1H-benzo[d]imidazole-2-carboxamide]	≤ 100 nM
Cc1c(Cl)cncc1N(CC(F)(F)CO)C(=O)c1nc2cc(C(F)(F)F)ccc2[nH]1 [Compound 133, N-(5-chloro-4-methylpyridin-3-yl)-N-(2,2-difluoro-3-hydroxypropyl)-5-(trifluoromethyl)-1H-benzo[d]imidazole-2-carboxamide]	≤ 100 nM
Cc1ccc2[nH]c(C(=O)N(C)C3CCCC3)c(C(N)=O)c2c1 [Compound 96, N2-cyclopentyl-N2,5-dimethyl-1H-indole-2,3-dicarboxamide]	≤ 100 nM
O=C(c1nc2cc(C(F)(F)F)ccc2[nH]1)N(CC1COC1)c1cccc(Cl)c1Cl [Compound 105, N-(2,3-dichlorophenyl)-N-(oxetan-3-ylmethyl)-5-(trifluoromethyl)-1H-benzo[d]imidazole-2-carboxamide]	≤ 100 nM

Next, values leading:

IC50	SMILES
≤ 100 nM	O=C(c1nc2c(F)c(Cl)ccc2[nH]1)N(CC(F)(F)CO)c1cccc(F)c1Cl [Compound 236]
≥ 1000 nM	Cc1ccc2[nH]c(C(=O)N(C)C3C[C@@H](C)O[C@@H](C)C3)c(CO)c2c1 (stereo partly drawn) [Compound 42, N-((2R,6S)-2,6-dimethyltetrahydro-2H-pyran-4-yl)-3-(hydroxymethyl)-N,5-dimethyl-1H-indole-2-carboxamide]
≥ 1000 nM	Cc1ccc2[nH]c(C(=O)N(C)c3ccccn3)c(CO)c2c1 [Compound 4, 3-(hydroxymethyl)-N,5-dimethyl-N-(pyridin-2-yl)-1H-indole-2-carboxamide]
≤ 100 nM	O=C(c1nc2cc(C(F)(F)F)ccc2[nH]1)N(CC(F)(F)CO)c1ccc(F)cc1Cl [Compound 216, N-(2-chloro-4-fluorophenyl)-N-(2,2-difluoro-3-hydroxypropyl)-5-(trifluoromethyl)-1H-benzo[d]imidazole-2-carboxamide]
≤ 100 nM	CN1CCC(N(C(=O)c2nc3cc(C(F)(F)F)ccc3[nH]2)c2cccc(F)c2Cl)C1=O (racemic) [Compound 240, N-(2-chloro-3-fluorophenyl)-N-(1-methyl-2-oxopyrrolidin-3-yl)-5-(trifluoromethyl)-1H-benzo[d]imidazole-2-carboxamide]
≥ 1000 nM	CN(C(=O)c1[nH]c2cc(Cl)cc(Cl)c2c1CO)C1CCCC1 [Compound 31, 4,6-dichloro-N-cyclopentyl-3-(hydroxymethyl)-N-methyl-1H-indole-2-carboxamide]
≥ 1000 nM	CN(C(=O)c1nc2c(N3CCOCC3)cccc2[nH]1)C1CCCC1 [Compound 101, N-cyclopentyl-N-methyl-4-morpholino-1H-benzo[d]imidazole-2-carboxamide]
≤ 100 nM	CC(C)(CO)c1ccc2[nH]c(C(=O)N(CC3(F)COC3)c3cccc(Cl)c3Cl)nc2c1 [Compound 205]
≥ 1000 nM	CN(C(=O)c1nc2c(C3CC(O)C3)cccc2[nH]1)C1CCCC1 (centres unmarked) [Compound 176, N-cyclopentyl-4-((1s,3s)-3-hydroxycyclobutyl)-N-methyl-1H-benzo[d]imidazole-2-carboxamide]
101 to 500 nM	Cc1cc(-c2ccc3[nH]c(C(=O)N(CC4COC4)c4cccc(Cl)c4Cl)nc3c2)[nH]n1 [Compound 122]
≥ 1000 nM	Cc1ccc(N(C)C(=O)c2[nH]c3ccc(C)cc3c2CO)cc1 [Compound 44, 3-(hydroxymethyl)-N,5-dimethyl-N-(p-tolyl)-1H-indole-2-carboxamide]
≤ 100 nM	Cc1ccc2[nH]c(C(=O)N(C)c3cccc(Cl)c3Cl)c(CNc3nccs3)c2c1 [Compound 79, N-(2,3-dichlorophenyl)-N,5-dimethyl-3-((thiazol-2-ylamino)methyl)-1H-indole-2-carboxamide]
≥ 1000 nM	CCc1cccc2[nH]c(C(=O)N(C)C3CCCC3)nc12 [Compound 94, N-cyclopentyl-4-ethyl-N-methyl-1H-benzo[d]imidazole-2-carboxamide]
≤ 100 nM	COC(=O)CN(C(=O)c1nc2cc(C(F)(F)F)ccc2[nH]1)c1cccc(Cl)c1Cl [Compound 140, Methyl N-(2,3-dichlorophenyl)-N-(5-(trifluoromethyl)-1H-benzo[d]imidazole-2-carbonyl)glycinate]
≤ 100 nM	Cc1c(Cl)cccc1N(C)C(=O)c1nc2cc(C(F)(F)F)ccc2[nH]1 [Compound 118, N-(3-chloro-2-methylphenyl)-N-methyl-5-(trifluoromethyl)-1H-benzo[d]imidazole-2-carboxamide]
≤ 100 nM	O=C(c1nc2cc(C(F)(F)F)ccc2[nH]1)N(Cc1cc[nH]n1)c1cccc(Cl)c1Cl [Compound 132, N-((1H-pyrazol-3-yl)methyl)-N-(2,3-dichlorophenyl)-5-(trifluoromethyl)-1H-benzo[d]imidazole-2-carboxamide]
≤ 100 nM	CC(O)CN(C(=O)c1nc2cc(C(F)(F)F)ccc2[nH]1)c1cccc(Cl)c1Cl (centres unmarked) [Compound 170]
≥ 1000 nM	CN(C(=O)C1Cc2ccccc2N1)C1CCCC1 (centres unmarked) [Compound 55, N-cyclopentyl-N-methylindoline-2-carboxamide]
≤ 100 nM	Cc1cccc(N(CCO)C(=O)c2nc3cc(C(F)(F)F)ccc3[nH]2)c1Cl [Compound 151, N-(2-chloro-3-methylphenyl)-N-(2-hydroxyethyl)-5-(trifluoromethyl)-1H-benzo[d]imidazole-2-carboxamide]
